The record followed here is patent US3950537A, “Gastrointestinally active thioureas” (Rohm and Haas Company, priority 1975, dated 1976).

Structures can show the parent of a compound that is named as a salt. Bounds are passed on as bounds.

Test [1] deals with charcoal entering the cecum. The experiment in a line: Antimotility test (charcoal entering the cecum). It counts as in vivo, mice (adult male). Conditions: for found to be active in the antimotility tests: mice, in words; for ED50: Mus musculus, oral, 1 h before charcoal, examined 3.5 h after charcoal, maximum dosage 30 mg./kg., read-out: Antimotility ED50 (prevented the charcoal from entering the cecum in 50% of the treated mice).
Method: Adult male mice weighing in the range of 20 to 30 g. were starved for 24 hours prior to the test. The animals were then treated orally with the test compound dissolved in water or suspended in methyl cellulose. One hour later, each animal was dosed with 0.2 ml. of a charcoal suspension consisting of 5% activated charcoal suspended in 0.25% methyl cellulose. The animals were sacrificed 3.5 hours after the charcoal administration and their cecums examined for the presence or absence of charcoal. […] A maximum dosage of 30 mg./kg. was used.

For a further test, the system named is gastric secretion. The experiment in a line: Antisecretory test (pyloric ligation, gastric secretion volume). Conditions: for ED50: Rattus norvegicus, orally 1 hour prior to pyloric ligation or subcutaneously immediately after, 5 h after ligation, maximum dosage 10 mg./kg., read-out: Antisecretory Activity ED50 (50% reduction in the volume of gastric secretion); for found to be active in the antisecretory test: rats, pyloric ligation, in words. The test is classed as in vivo, Wistar rats (adult female). How it is done:
Adult female Wistar rats weighing 140 to 160 g. were starved for 24 hours prior to the test. The animals were anaesthetized with ether, shaved on the abdomen, and a small midline incision made. The pylorus was exposed, ligated, and the wound subsequently closed with wound clips. The animals were treated with the test compound administered either orally 1 hour prior to pyloric ligation or subcutaneously immediately after ligation. The test compound was administered in distilled water or 0.5% methyl cellulose. Six animals were used for each treatment. Five hours following the ligation, the animals were sacrificed, the stomachs were carefully removed and opened, and the gastric contents measured for volume and titratable acidity. […] A maximum dosage of 10 mg./kg. was used for the test compounds.

The test system of a further test is diarrhea. The experiment in a line: Antidiarrheal test (castor oil diarrhea). Conditions: Mus musculus; oral, 1 h before castor oil; diarrhea noted 3 h later; maximum 30 mg./kg.; read-out: Antidiarrheal ED50 (inhibited diarrhea in 50% of the treated mice). It counts as in vivo, Swiss-Webster mice (adult male). How it is done:
In this test adult male Swiss-Webster mice weighing 30 to 40 g. were employed, using 6 mice per treatment. The test compound was administered orally in a dosage series with a maximum of 30 mg./kg. either in water if soluble or else in 0.5% methyl cellulose. One hour after treatment, each animal received a single dose of 0.3 ml. of castor oil, administered orally. The animals were then individually caged and provided food and water.

Consider `Cc1cc(Cl)ccc1NC(=S)N(C)C` [Preparation AD, 1-(2-methyl-4-chlorophenyl)-3,3-dimethylthiourea], for which the “found to be active in the antimotility tests” value in test [1] is reported as “active”.
In the case of `Cc1ccc(NC(=S)N(C)CCO)c(C)c1` [AL], the results for the ED50 (in the test on gastric secretion; in test [1]; in the test with diarrhea) were > 10 mg/kg, > 30 mg/kg and > 30 mg/kg, respectively.
Regarding `Cc1ccccc1NC(=S)N(C)C` [Preparation AA], the “found to be active in the antimotility tests” value in test [1] is “active”.
Same read-out and setting: the result for `Cc1cc(Cl)ccc1NC(=S)NCCN` [Preparation AJ] reads “active”.
As for `Cc1ccccc1NC(=S)N(C)C` [AA], the results for the ED50 (in the test on gastric secretion; in test [1]; with diarrhea) were > 10 mg/kg, < 30 mg/kg and < 30 mg/kg, respectively.
Consider `Cc1cc(C)c(NC(=S)NCCO)c(C)c1` [Preparation S], for which, in the test with gastric secretion, the “found to be active in the antisecretory test” value is “active”. The “found to be active in the antimotility tests” value in test [1] was “active”.
For the compound `Cc1cccc(C)c1NC(=S)N(C)C` [Preparation AC], in test [1], the “found to be active in the antimotility tests” value was “active”.
Same read-out and setting: the result for `Cc1cccc(C)c1NC(=S)NCCN` [Preparation AI] reads “active”.
In the case of `Cc1ccc(NC(=S)NCCN(C)C)c(C)c1` [AH], the figures for the ED50 (in the test with gastric secretion; in test [1]; in the test on diarrhea) were > 10 mg/kg, 20 mg/kg and > 30 mg/kg, respectively.
As to `Cc1ccccc1NC(=S)NCCO` [Preparation A, 1-(2-methylphenyl)-3-(2-hydroxyethyl)thiourea], the “found to be active in the antisecretory test” value in the test with gastric secretion is given as “active”. Further, the “found to be active in the antimotility tests” value in test [1] was “active”.
`Cc1ccccc1NC(=S)NCCO` [A]: the ED50 with gastric secretion was 3 to 10 mg/kg; in test [1], 11.5 mg/kg; in the test with diarrhea, 7.8 mg/kg.
For the compound `Cc1ccc(NC(=S)NCCO)cc1` [D], the ED50 in test [1] is > 30 mg/kg.
For `CCNC(=S)Nc1ccc(C)cc1C` [AF], the values for the ED50 (in the test on gastric secretion; in test [1]) were > 10 mg/kg and > 30 mg/kg, respectively.
In the same order, the values of `Cc1ccc(NC(=S)NC(C)CO)c(C)c1` (stereo not shown) [AN] are > 10 mg/kg and > 30 mg/kg.
Consider `CN1CCCN=C1COC(=O)C(O)(c1ccccc1)C1CCCCC1` (stereo not shown) [Daricon, oxyphencyclimine hydrochloride, reference compound], for which the ED50 with gastric secretion amounted to 2.4 mg/kg; in test [1] it was 3.4 mg/kg; in the test on diarrhea, 50 mg/kg.
As for `Cc1cccc(Cl)c1NC(=S)NCCO` [Preparation N], the “found to be active in the antimotility tests” value in test [1] is given as “active”.
As to `CCOC(=O)C1(c2ccccc2)CCN(CCC(C#N)(c2ccccc2)c2ccccc2)CC1` [Lomotil, diphenoxylate hydrochloride, reference compound], the figures for the ED50 (in test [1]; with diarrhea) were 2 mg/kg and 9.9 mg/kg, respectively.
As for `Cc1ccc(NC(=S)NCCO)cc1C` [I], the ED50 was > 10 mg/kg in the test with gastric secretion, > 30 mg/kg in test [1] and > 30 mg/kg with diarrhea.
`CC(C)[N+](C)(CCOC(=O)C1c2ccccc2Oc2ccccc21)C(C)C` [Pro-Banthine, propantheline bromide, reference compound]: the figures for the ED50 (in the test on gastric secretion; in test [1]; in the test with diarrhea) were 8 mg/kg, 14.7 mg/kg and > 80 mg/kg, respectively.
In the same order, the values of `Cc1cccc(NC(=S)NCCO)c1C` [E] are 3 mg/kg, 5 mg/kg and 12.5 mg/kg.
With `Cc1cc(Br)ccc1NC(=S)NCCO` [O], the ED50 was < 10 mg/kg in the test on gastric secretion, 18.5 mg/kg in test [1] and > 30 mg/kg in the test on diarrhea.
On to `Cc1ccc(Cl)cc1NC(=S)NCCO` [Preparation M], for which the “found to be active in the antimotility tests” value in test [1] was “active”.
For the compound `Cc1cc(Cl)ccc1NC(=S)N(C)C` [AD], the ED50 is > 10 mg/kg in the test with gastric secretion and < 30 mg/kg in test [1].
In the same order, the values of `CNC(=S)Nc1ccc(C)cc1C` [AE] are > 10 mg/kg and > 30 mg/kg.
`COc1ccc(NC(=S)NCCO)c(C)c1` [Preparation R]: the “found to be active in the antimotility tests” value in test [1] is “active”.
Same read-out and setting: for `Cc1ccc(NC(=S)NCCN)c(C)c1` [Preparation AG] the value was “active”.
On to `COc1ccc2c3c1O[C@H]1[C@@H](O)C=C[C@H]4[C@@H](C2)N(C)CC[C@@]341` [codeine phosphate, reference compound], for which the ED50 in test [1] was determined as 29 mg/kg; with diarrhea, 35 mg/kg.
In the case of `CCc1ccccc1NC(=S)NCCO` [B], the ED50 was > 10 mg/kg in the test with gastric secretion, > 15 mg/kg in test [1] and 15 to 30 mg/kg in the test on diarrhea.
Turning to `Cc1cccc(NC(=S)NCCO)c1C` [Preparation E], the “found to be active in the antisecretory test” value in the test with gastric secretion is reported as “active”. In addition, in test [1], the “found to be active in the antimotility tests” value is given as “active”.
In the case of `Cc1cccc(C)c1NC(=S)N(C)C` [AC], the ED50 with gastric secretion was > 10 mg/kg; in test [1] it was < 30 mg/kg.
`Cc1cc(C)c(NC(=S)NCCO)c(C)c1` [S]: the ED50 is < 10 mg/kg in the test with gastric secretion, 6.4 mg/kg in test [1] and < 30 mg/kg in the test with diarrhea.
Take `Cc1ccc(NC(=S)N(C)C)c(C)c1` [Preparation AB]: in test [1], the “found to be active in the antimotility tests” value is “active”.
On to `Cc1cc(O)ccc1NC(=S)NCCO` [Q], for which the ED50 was > 10 mg/kg with gastric secretion, > 30 mg/kg in test [1] and > 30 mg/kg with diarrhea.
Regarding `Cc1ccc(NC(=S)NCCN(C)C)c(C)c1` [Preparation AH, 1-(2,4-dimethylphenyl)-3-(2-dimethylaminoethyl)-thiourea], the “found to be active in the antimotility tests” value in test [1] is reported as “active”.
Consider `Cc1c(Cl)cccc1NC(=S)NCCO` [K], for which the ED50 in the test with gastric secretion was > 10 mg/kg; in test [1], 7.2 mg/kg; in the test with diarrhea it was < 30 mg/kg.
In the case of `Cc1ccc(NC(=S)NCCN)c(C)c1` [AG], the ED50 is > 10 mg/kg in the test on gastric secretion, 13 mg/kg in test [1] and 10 mg/kg in the test on diarrhea.
As to `OCCNC(=S)Nc1ccc2ccccc2c1` [U], the ED50 with gastric secretion was > 10 mg/kg; in test [1], > 30 mg/kg; in the test on diarrhea, > 30 mg/kg.
Consider `Cc1cccc(C)c1NC(=S)NCCO` [H], for which the ED50 in the test with gastric secretion was 0.5 to 1 mg/kg; in test [1], 2.4 mg/kg; in the test with diarrhea it was 4.3 mg/kg.
For the compound `Cc1cc(Br)ccc1NC(=S)NCCO` [Preparation O], the “found to be active in the antimotility tests” value in test [1] was “active”.
On to `Cc1cc(C)cc(NC(=S)NCCO)c1` [J], for which the figures for the ED50 (in the test with gastric secretion; in test [1]) were > 10 mg/kg and > 30 mg/kg, respectively.
On to `CC(C)c1ccccc1NC(=S)NCCO` [C], for which the ED50 in the test on gastric secretion is > 10 mg/kg; in test [1], > 30 mg/kg; with diarrhea it was > 30 mg/kg.
Regarding `Cc1cc(Cl)ccc1NC(=S)NCCO` [Preparation L], the “found to be active in the antisecretory test” value with gastric secretion is “active”. Further, the “found to be active in the antimotility tests” value in test [1] was “active”.
With `OCCNC(=S)Nc1cccc2ccccc12` [Preparation T], the “found to be active in the antimotility tests” value in test [1] is on record as “active”.
Turning to `Cc1cccc(C)c1NC(=S)NCCO` [Preparation H, 1-(2,6-dimethylphenyl)-3-(2-hydroxyethyl)thiourea], in the test with gastric secretion, the “found to be active in the antisecretory test” value is on record as “active”. The “found to be active in the antimotility tests” value in test [1] was “active”.
Consider `Cc1ccc(NC(=S)NCCCO)c(C)c1` [AQ], for which the ED50 was > 10 mg/kg in the test on gastric secretion, > 30 mg/kg in test [1] and > 30 mg/kg in the test on diarrhea.
In the case of `Cc1ccc(NC(=S)NCC(C)O)c(C)c1` (stereo not shown) [AP], the ED50 in the test on gastric secretion is > 10 mg/kg; in test [1] it was > 30 mg/kg; in the test on diarrhea it was > 30 mg/kg.
As to `Cc1ccc(NC(=S)NCCO)c(C)c1` [F], the figures for the ED50 (in the test with gastric secretion; in test [1]; in the test on diarrhea) were 0.5 to 1 mg/kg, 8.6 mg/kg and 10.5 mg/kg, respectively.
The corresponding values for `Cc1cccc(C)c1NC(=O)NCCO` [AR] are > 10 mg/kg, > 30 mg/kg and > 30 mg/kg.
In the case of `CN1[C@@H]2CC[C@H]1C[C@@H](OC(=O)C(CO)c1ccccc1)C2` (stereo partly shown) [atropine, reference compound], the results for the ED50 (in test [1]; with diarrhea) were 9.8 mg/kg and > 40 mg/kg, respectively.
As to `OCCNC(=S)Nc1cccc2ccccc12` [T], the ED50 in test [1] is 7 mg/kg; in the test with diarrhea, 15 to 30 mg/kg.
For the compound `COc1ccc(NC(=S)NCCO)c(C)c1` [R], the ED50 is > 10 mg/kg in the test on gastric secretion, 12.5 mg/kg in test [1] and 30 mg/kg in the test on diarrhea.
For the compound `Cc1ccc(NC(=S)NC(C)(C)CO)c(C)c1` [AO], the ED50 with gastric secretion was > 10 mg/kg; in test [1], < 30 mg/kg; in the test with diarrhea, > 30 mg/kg.
Consider `Cc1c(Cl)cccc1NC(=S)NCCO` [Preparation K], for which the “found to be active in the antimotility tests” value in test [1] is “active”.
Take `CCc1ccccc1NC(=S)NCCO` [Preparation B]: the “found to be active in the antimotility tests” value in test [1] is on record as “active”.
As for `Cc1cccc(Cl)c1NC(=S)NCCO` [N], the ED50 with gastric secretion is > 10 mg/kg; in test [1], < 30 mg/kg.
For the compound `Cc1ccc(C)c(NC(=S)NCCO)c1` [G], the ED50 is > 10 mg/kg in the test on gastric secretion, > 30 mg/kg in test [1] and > 30 mg/kg with diarrhea.
Take `Cc1cc(Cl)ccc1NC(=S)NCCN` [AJ]: the figures for the ED50 (with gastric secretion; in test [1]) were > 10 mg/kg and 30 mg/kg, respectively.
Take `Cc1ccc(NC(=S)NCCO)c(C)c1` [Preparation F, 1-(2,4-dimethylphenyl)-3-(2-hydroxyethyl)-thiourea]: the “found to be active in the antisecretory test” value in the test on gastric secretion is on record as “active”. Further, the “found to be active in the antimotility tests” value in test [1] is reported as “active”.
